Eight molecules from patent EP0129947A2, “Contraceptive compositions based on esters of levo-norgestrel” (priority 1983, dated 1985) can be followed below.

For series [1], the system named is female rats. The series is described as follows: estrus suppression assay (duration of suppression of vaginal cornification after one subcutaneous injection). The class given is in vivo, rats of the Sprague-Dawley strain. As to conditions: for effect of formulation on results: aqueous microcrystalline suspension of particle size 3 to 10µ (50% cumulative oversize, Coulter); for durations of suppression: aqueous microcrystalline suspension, subcutaneous; for duration of action in words: cyclic esters of the series of Table 1 and Fig. 1; for suppression of estrus compared with DMPA at 16 mg/rat: ester at 8 mg/rat, aqueous microcrystalline suspension (Figure 1). Here is the method:
These were subjected to a biological screening programme designed to uncover new and effective sustained- release injectable contraceptives, the compounds being tested as injectable oily solutions or aqueous suspensions. The initial test was to determine the duration of suppression of estrus in female rats, with DMPA and norethisterone enanthate being used as comparison-standards. The most promising compounds were then tested in primates.
The bioassay used to determine the duration of action of the contraceptive compositions involved measuring the suppression of estrus in female rats. The compositions were used at four dosage levels, i.e. 2, 4, 8 and 16 mg/rat.
The long-acting properties of each formulation were determined in estrus suppression assay employing virgin, mature (180-200 g) cycling rats of the Sprague-Dawley strain purchased from Charles River Laboratories, USA. Upon receipt the animals were smeared daily for cyclicity and only those animals showing two consecutive normal cycles were used. Each animal was injected subcutaneously with 0.8 ml of the test preparation on the same day regardless of the stage of the cycle. Each compound was initially tested on ten rats. A series of initial tests with injections of 16 mg/animal were followed by studies at dose levels of 8, 4 and 2 mg/animal where necessary. An aqueous microcrystalline suspension of medroxyprogesterone acetate was used as standard. Daily smears were taken starting on the day after injection and continued until such time that cornification of vaginal epithelium was observed and cycling was re-established. Duration of cornification suppression is expressed as the total number of days minus two. The appearance of cornification was not always followed by the return of normal estrus cycles.

A short description of series [2]: pharmacokinetics in the monkey (circulating levo norgestrel after injection). As to conditions: monkey Macaca mulata.
Setting [3] is: 8 mg/rat, majority of experiments terminated at 91 days post injection.

For `C#C[C@]1(OC(=O)C2CCCCC2)CC[C@H]2[C@@H]3CCC4=CC(=NO)CC[C@@H]4[C@H]3CC[C@@]21CC` [levo-norgestrel cyclohexylcarboxylate 3-oxime], in series [1], the “effect of formulation on results” value is listed as “better results”.

Molecule “norethisterone enanthate [reference compound]” showed an average duration in series [1] (oily solution, rat, dose not given) of 23.1 days.

Turning to `C#C[C@]1(OC(=O)C2CCC2)CC[C@H]2[C@@H]3CCC4=CC(=O)CC[C@@H]4[C@H]3CC[C@@]21CC` [levo-norgestrel cyclobutylcarboxylate], the durations of suppression in series [1] (2 mg/rat) is given as 31.9 days; in series [1] (4 mg/rat), 55.7 days; in series [1] (setting [3]), 89.2 days; in series [1] (16 mg/rat) it was above 91 days. Besides, the “effect of formulation on return to estrus” value in series [1] (Figure II: aqueous microcrystalline suspension 3 to 10µ versus solution in sesame oil or in ethyl oleate, groups of ten rats) is listed as “longer term effect of the ester when micro-dispersed in aqueous medium”. Besides, the “duration of action in words” value in series [1] is “long-acting”. In addition, the “suppression of estrus compared with DMPA at 16 mg/rat” value in series [1] (listed as cyclobutyl carboxylate) is “better suppression than DMPA at a dosage of 16 mg/rat”; in series [1] (listed as cyclobutylcarboxylate), “the same inhibition as DMPA at 16 mg”. In addition, in series [1] (microcrystalline suspension in ethyl oleate (Table 11)), the “activity relative to the aqueous suspension” value is reported as “approximately 40%”. Further, the activity by formulation result in series [1] (solution in a 50:50 mixture of ethyl oleate and benzyl benzoate (BB), compared with the suspensions) is listed as “Further reduction in activity”. Further, the “time during which measurable levels of levo norgestrel are still present in the circulation after injection” value in series [2] is above 100 days.

Regarding `C#C[C@]1(OC(=O)C2CCCC2)CC[C@H]2[C@@H]3CCC4=CC(=O)CC[C@@H]4[C@H]3CC[C@@]21CC` [cyclopentylcarboxylate, Levo-norgestrel 17β-cyclopentyl carboxylate, reference compound], the effectiveness in words result in series [1] (16 mg dose) is listed as “relatively ineffective”. Also, the “duration of action in words” value in series [1] is listed as “short acting”.

For `CC(=O)O[C@]1(C(C)=O)CC[C@H]2[C@@H]3C[C@H](C)C4=CC(=O)CC[C@]4(C)[C@H]3CC[C@@]21C` [DMPA, medroxyprogesterone acetate, reference compound], the durations of suppression is reported as 20.9 days in series [1] (2 mg/rat), 28.2 days in series [1] (4 mg/rat), 55.5 days in series [1] (setting [3]) and 60.0 days in series [1] (16 mg/rat). In series [1] (microcrystalline suspension, rat, dose not given), this molecule yielded an average suppression duration of 63.7 days.

Consider `C#C[C@]1(OC(=O)C2CCCC2)CC[C@H]2[C@@H]3CCC4=CC(=NO)CC[C@@H]4[C@H]3CC[C@@]21CC` [levo-norgestrel cyclopentylcarboxylate 3-oxime], for which the “effect of formulation on results” value in series [1] is given as “better results”.

With `C#C[C@]1(OC(=O)CCC)CC[C@H]2[C@@H]3CCC4=CC(=O)CC[C@@H]4[C@H]3CC[C@@]21CC` [levo-norgestrel butanoate], the results for the durations of suppression in series [1] (2 mg/rat), in series [1] (4 mg/rat) and in series [1] (setting [3]) were 34.4 days, 65.1 days and below 91 days, respectively. Also, the “suppression of estrus compared with DMPA at 16 mg/rat” value in series [1] was “better suppression than DMPA at a dosage of 16 mg/rat”.

Take `C#C[C@]1(OC(=O)C2CC2)CC[C@H]2[C@@H]3CCC4=CC(=O)CC[C@@H]4[C@H]3CC[C@@]21CC` [levo-norgestrel cyclopropylcarboxylate]: the durations of suppression in series [1] (4 mg/rat) is listed as 55.6 days. In series [1] (setting [3]), this molecule came in with a durations of suppression of 74.0 days. For the same molecule, in series [1], the “duration of action in words” value is recorded as “long-acting” and the “suppression of estrus compared with DMPA at 16 mg/rat” value is “better suppression than DMPA at a dosage of 16 mg/rat”.
